The subject of one series is SU-DHL5. The series is described as follows: Cell viability assay (CellTiter-Glo) in SU-DHL5. Conditions: Homo sapiens, SU-DHL-5, 72 h, read-out: Viability Inhibition- SU- DHL5- IC50 (μM). It counts as cell-based. The method, then: (§1) CELL VIABILITY ASSAY. […] Cell viability was assayed at 72 hrs by addition of CellTiter-Glo Assay reagents according to the manufacturer's protocol (Promega), and luminescence measured using a F200 PRO microplate reader (TECAN). […] Excluding high-throughput drug screenings, viability assays were performed in at least triplicate and the data normalized to 1% vehicle-treated control wells. IC50 values were determined by nonlinear regression analysis using Prism software (Graphpad). Dilutions of compounds was performed using a TECAN D300e Digital Dispenser from 10 mM stocks. The BLISS calculation was determined using the Combenefit program as previously described by Di Veroli et al., Bioinformatics.
On the technique in general: Cellular ATP, detected with luciferase, serves as a proxy for viable cell number.

Series [1] concerns leukemia and lymphoma cell lines. Description: cells. Conditions: Homo sapiens, 72 h, read-out: mean cell viability IC50. The method, then:
as §1

A further series concerns SW480 xenograft. The series is described as follows: SW480 tumor xenograft efficacy and pharmacodynamic study. The class given is in vivo, nu/nu nude mice. Conditions: 200 mg/kg BTSA1.2, 100 mg/kg Navitoclax, oral daily. The source says:
TUMOR XENOGRAFT STUDIES. 6-8 weeks old nu/nu nude male mice were purchased from Charles River. […] For efficacy the efficacy study, treatments started once tumors reached a volume of ˜200 mm^3. […] Body weight of mice were monitored during treatment. For the pharmacodynamic study, treatments started once tumors reached a volume of ˜400 mm^3, after 3 days of daily treatment mice were euthanized and tumors were collected for analysis. Ex-Vivo BHS PROFILING. SW480 xenograft vehicle and combination treated tumors, and COLO-1 and COLO-2 PDX tumors were analyzed by BH3 profiling under basal conditions. Single cells from tumors were isolated by mechanically pass them through a […] strainer filter with cold PBS. SW480 xenograft tumors: […] PDX tumors: […] Single cell suspensions were prepared in 1:1 JC-1-MEB buffer, as previously described, and were kept at room temperature for 10 min to allow for cell permeabilization and dye equilibration. After adding the cells to the 384-well plate, 2.0×10^4 cells/well, fluorescence was measured at 590 nm emission 545 nm excitation using the M1000 microplate reader (TECAN) at 30° C. every 15 min for a total of 2 hrs.

The next series has as its target T1, BAX (Homo sapiens, UniProt Q07812).
T1 construct: serial dilutions of full-length BAX; made in house; host or cells: Escherichia coli
The series is described as follows: BIM SAHB-BAX competition fluorescence polarization assay (FPA). Conditions: FITC-BIM SAHBA2 50 nM, BAX 500 nM. The class given is binding. The method, then: PRODUCTION OF RECOMBINANT BAX PROTEIN. […] BAX wild type was purified by size-exclusion chromatography in a buffer containing 20 mM HEPES pH 7.2, 150 mM KC1, 1 mM DTT. Superdex 75 10/300 GL and 200 10/300 GL (GE Healthcare) columns were used.
FLUORESCENCE POLARIZATION BINDING As SAYS. […] Firstly, direct binding isotherms were generated by incubating FITC-BIM SAHBA2 (50 nM) with serial dilutions of full-length BAX and fluorescence polarization was measured at 20 min on a F200 PRO microplate reader (TECAN). Subsequently, in competition assays, a serial dilution of small-molecule or acetylated BIM SAHBA2 (Ac-BIM SAHB) was combined with FITC-BIM SAHBA2 (50 nM), followed by the addition of recombinant protein at EC75 concentration, as determined by the direct binding assay (BAX: 500 nM). EC50 and IC50 values were calculated by nonlinear regression analysis of competitive binding curves using Graphpad Prism software.
In general terms: Polarisation of emitted light reports the rotation of a fluorescent probe.

A further series relates to SW480. Description: Cell viability (CellTiter-Glo), SW480. It counts as cell-based, human. Conditions: SW480, 72 hrs. The method, then:
as §1

Series [2] in a line: BTSA1.2 and Navitoclax combination in vivo toxicity study. Also noted: species or system CD1-IGS mice. Conditions: 200 mg/kg BTSA1.2, 100 mg/kg Navitoclax, oral daily for 7 days. The source says:
6-8 weeks old CD1-IGS male mice were purchased from Charles River. […] Mice were monitored daily; body weight and peripheral blood counts were monitored at the indicated days.

The subject of the next series is solid tumor cell lines. Description: Cell viability, solid tumor cell lines of the 46-line panel. The class given is cell-based. Conditions: Homo sapiens, 72 h, read-out: mean cell viability IC50. The method, then: as §1
The nature of the next series: in vivo. Conditions: both, CD1-IGS, mouse, po.
A further series has as its system COLO-1 PDX. The series is described as follows: COLO-1 patient-derived xenograft efficacy study. Conditions: 200 mg/kg BTSA1.2, 50 mg/kg Navitoclax, oral daily up to 18 days. It counts as in vivo, NOD SCID mice.
Series [3] can be described thus: Pharmacokinetic analysis of BTSA1.2 in mice. It counts as in vivo. Conditions: for AUC(0-inf): read-out: AUCinf_obs; for MRT inf: read-out: MRTINF_obs. The method, then: […] […]. ICR (CD-1) male mice were fasted at least 3 hrs and water was available ad libitum before the study. Animals were housed in a controlled environment, target conditions: temperature 18-29° C., relative humidity 30 to 70%. Temperature and relative humidity were monitored daily. […] Experiments performed at […] joint Biopharmacy Laboratory.

Another series addresses BCL-2 (Homo sapiens, UniProt P10415). Conditions: cited from earlier work.
The target in the next series is T2, BCL-w (Homo sapiens, UniProt Q92843).
T2 sequence (Q92843 1-193): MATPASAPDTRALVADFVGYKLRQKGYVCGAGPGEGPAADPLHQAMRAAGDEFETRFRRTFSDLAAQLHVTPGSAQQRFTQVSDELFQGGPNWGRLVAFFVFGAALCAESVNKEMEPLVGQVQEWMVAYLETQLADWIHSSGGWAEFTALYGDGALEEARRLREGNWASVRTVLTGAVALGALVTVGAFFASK
Conditions: cited from earlier work.

The next series has as its target BCL-XL (Homo sapiens, UniProt Q07817). Conditions: cited from earlier work.
Setting [4] is: male, ICR (CD-1), mouse, IV 1 mg/kg, mice plasma, Mean.
[5] abbreviates: male, ICR (CD-1), mouse, PO 3 mg/kg, mice plasma, Mean.

Like-named read-outs stand apart in the source and are kept apart here. Some results are limits rather than exact numbers.

BCL-XL, sequence (Q07817 whole entry): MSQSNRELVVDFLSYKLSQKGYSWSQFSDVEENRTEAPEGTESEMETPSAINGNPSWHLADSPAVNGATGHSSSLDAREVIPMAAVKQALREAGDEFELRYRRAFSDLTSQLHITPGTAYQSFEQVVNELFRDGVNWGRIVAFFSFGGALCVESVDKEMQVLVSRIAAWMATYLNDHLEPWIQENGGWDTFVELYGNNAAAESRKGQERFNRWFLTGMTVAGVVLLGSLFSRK
T1 sequence (Q07812 whole entry): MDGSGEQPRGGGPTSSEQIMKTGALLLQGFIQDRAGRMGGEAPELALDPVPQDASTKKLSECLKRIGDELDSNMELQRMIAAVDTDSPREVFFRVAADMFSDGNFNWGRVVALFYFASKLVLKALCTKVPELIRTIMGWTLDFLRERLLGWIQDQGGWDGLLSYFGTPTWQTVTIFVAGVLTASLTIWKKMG
BCL-2, sequence (P10415 whole entry): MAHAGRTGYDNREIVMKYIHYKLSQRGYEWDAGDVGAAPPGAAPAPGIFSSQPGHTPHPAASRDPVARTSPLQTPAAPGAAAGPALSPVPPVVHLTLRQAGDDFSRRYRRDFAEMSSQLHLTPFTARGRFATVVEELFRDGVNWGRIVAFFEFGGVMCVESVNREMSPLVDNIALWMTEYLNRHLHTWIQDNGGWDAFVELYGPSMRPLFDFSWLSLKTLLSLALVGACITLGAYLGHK
Text for COLO-1 PDX: 6-8 weeks old NOD SCID male mice were purchased from Charles River. […] PDX characterization: mice were divided into two groups COLO-1 and COLO-2 (n=3) were divided into two groups. Tumor was collected once tumor reached a volume of ˜1,000 mm^3. […] Treatments started once tumors reached a volume of ˜200 mm^3. Tumor volume was monitored every 3-4 days by caliper measurements until the cessation of the experiment when tumors reached an ethically unacceptable size or after 18 days of daily treatment (whichever came first). Body weight of mice were monitored during treatment.

The IC50 is the concentration that gives 50% inhibition. In general, AUC refers to concentration integrated over time. Broadly, the AUC(0-t) is the area under the concentration-time curve up to a stated or last time point. By Tmax is commonly meant the time from dosing to the highest level. Turning to `Cc1nc(N/N=C2\C(=O)N(c3nc(-c4ccccc4)cs3)N=C2c2ccccc2)sc1C` [BTSA1.2, 4-(2-(4,5-dimethylthiazol-2-yl)hydrazono)-5-phenyl-2-(4-phenyl-thiazol-2-yl)-2,4-dihydro-3H-pyrazol-3-one], the IC50 in the series on SU-DHL5 is 0.23 µM; in [1] it was less than 3000 nM; at BAX it was 109 nM; in the series with solid tumor cell lines, greater than 10 µM. In addition, the tumor growth entry is reported as “no significant efficacy in reducing tumor growth” in the series on SW480 xenograft and “some PDX showed to respond to BTSA1.2 only treatment as their tumor growth was suppressed” in the series on COLO-1 PDX. Also, the necropsy finding entry (200 mg/kg BTSA1, 300 mg/kg BTSA1.2, oral gavage daily) was “die by kidney failure after 3 days of treatment”. Also, the “body weights and organ histology” value (BTSA1.2 up to 200 mg/kg oral) was “constant body weights and organs examined were between normal histologic limits”. For the same compound, the “dose limiting toxicity (DLT)” value (oral daily for 5 days) is listed as 300 mg/kg. For the same compound, the “single agent effect on cell viability” value with SW480 was “resistant”. Moreover, the “body weight, blood counts and organs” value in series [2] is “body weight and blood counts were measured in normal levels but reduction in white blood cells and lymphocytes counts was observed after repeated dosing”. The compound further showed an MTD in the series “in vivo” of 200 mg/kg. The same compound registered a CL_obs in [3] (IV 1 mg/kg, mice plasma, Mean) of 0.282. This compound also displayed a VSS_obs in [3] (IV 1 mg/kg, mice plasma, Mean) of 555.803. Further, the bioavailability was roughly 50% in series [3] (male, ICR (CD-1), mouse, plasma, 3 mg/kg, oral administration, mice, read-out: oral bioavailability (% F)) and 49.2% in [3] (male, ICR (CD-1), mouse, plasma, PO 3 mg/kg vs IV 1 mg/kg, mice, read-out: F(%)). Further, the Cmax in [3] (male, ICR (CD-1), mouse, plasma, 3 mg/kg, oral administration, mice, read-out: peak concentration (Cmax)) is roughly 8 µM; in series [3] (male, ICR (CD-1), mouse, IV 1 mg/kg, mice plasma, Mean, read-out: Cmax) it was 2670 ng/mL; in [3] (male, ICR (CD-1), mouse, PO 3 mg/kg, mice plasma, Mean, read-out: Cmax), 3690 ng/mL. Moreover, the area under the curve (AUC) in series [3] (male, ICR (CD-1), mouse, plasma, 3 mg/kg, oral administration, mice, read-out: plasma exposure (AUC)) was roughly 100 µM·h. The half-life in series [3] (male, ICR (CD-1), mouse, plasma, iv, 1 mg/kg, IV 1 mg/kg, mice plasma, Mean, read-out: T1/2 (converted)) was 1480 min; in [3] (male, ICR (CD-1), mouse, plasma, po, 3 mg/kg, PO 3 mg/kg, mice plasma, Mean, read-out: T1/2 (converted)), 864 min; in series [3] (male, ICR (CD-1), mouse, plasma, po, 3 mg/kg, oral administration, read-out: half-life (T1/2) in mouse plasma (converted)), roughly 840 min. Also, the exposure AUC(0-t) in [3] (setting [4]) is 31900 ng·h/mL; in [3] (setting [5]), 47000 ng·h/mL. Also, the Tmax is 2 h in [3] (setting [4]) and 3.33 h in series [3] (setting [5]). For the same compound, the AUC(0-inf) in series [3] (setting [4]) was 67700 ng·h/mL; in [3] (setting [5]) it was 70000 ng·h/mL. Further, the MRT inf was 35.7 h in [3] (setting [4]) and 21.7 h in series [3] (setting [5]). Further, the “half-life (T1/2) in mouse plasma” value in series [3] (oral administration) is roughly 15 h.
Turning to `CN(C)CC[C@H](CSc1ccccc1)Nc1ccc(S(=O)(=O)NC(=O)c2ccc(N3CCN(Cc4ccccc4-c4ccc(Cl)cc4)CC3)cc2)cc1[N+](=O)[O-]` [ABT-737], the affinity on BCL-2, at BCL-w and at BCL-XL was less than 1 mol/L each time.

These data come from patent publication US20230372307A1, “COMBINATION THERAPY USING BAX ACTIVATOR AGENT” (Albert Einstein College of Medicine, priority 2020, published 2023).
